Measured values reported in paper PMC3969223, “Characterization of WZ4003 and HTH-01-015 as selective inhibitors of the LKB1-tumour-suppressor-activated NUAK kinases” (Biochemical Journal, 2013).

Assays:
[1] = tested on: panel of 140 protein kinases; assay: Protein kinase profiling, whole panel; format: biochemical; details: 1 μM, panel of 140 kinases
Method: Kinase inhibitor specificity profiling assays were carried out at The International Centre for Protein Kinase Profiling (http://www.kinase-screen.mrc.ac.uk/) against a panel of 140 protein kinases as described previously. Results are presented as a percentage of kinase activity in DMSO control reactions. Protein kinases were assayed in vitro with 0.1 or 1 μM of the inhibitors and the results are presented as an average of triplicate reactions±S.D. or in the form of comparative histograms.

[2] = target: T1, NUAK1 (Homo sapiens, UniProt O60285); assay: GST–NUAK1 Sakamototide peptide kinase assay; format: biochemical; details: 200 μM Sakamototide, 100 μM [γ-32P]ATP; read-out: IC50 for NUAK1 (wild-type GST–NUAK1)
T1 construct: made in house; host or cells: HEK-293 cells, transient transfection of pEBG2T construct
T1 sequence (O60285 1-661): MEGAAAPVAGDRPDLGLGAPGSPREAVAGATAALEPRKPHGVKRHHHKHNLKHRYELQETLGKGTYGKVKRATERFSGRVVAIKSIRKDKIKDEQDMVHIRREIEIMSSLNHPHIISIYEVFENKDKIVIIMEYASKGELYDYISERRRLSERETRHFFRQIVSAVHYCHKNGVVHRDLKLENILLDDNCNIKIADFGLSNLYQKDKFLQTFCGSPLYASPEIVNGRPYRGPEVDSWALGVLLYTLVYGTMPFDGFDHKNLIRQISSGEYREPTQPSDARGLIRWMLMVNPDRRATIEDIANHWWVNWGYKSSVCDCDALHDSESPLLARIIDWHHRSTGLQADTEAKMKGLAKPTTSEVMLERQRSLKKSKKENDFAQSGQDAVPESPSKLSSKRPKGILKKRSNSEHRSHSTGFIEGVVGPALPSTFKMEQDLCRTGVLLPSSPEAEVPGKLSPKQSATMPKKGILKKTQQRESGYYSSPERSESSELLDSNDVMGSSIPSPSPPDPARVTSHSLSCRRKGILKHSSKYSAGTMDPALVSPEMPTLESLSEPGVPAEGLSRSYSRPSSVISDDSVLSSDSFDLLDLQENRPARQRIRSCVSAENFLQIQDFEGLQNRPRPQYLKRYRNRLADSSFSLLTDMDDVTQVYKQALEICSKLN
Method: Active GST–NUAK1, GST–NUAK1[A195T] and GST–NUAK2 enzymes were purified using glutathione–Sepharose from HEK-293 cell lysates 36–48 h following the transient transfection of pEBG2T mammalian constructs expressing N-terminal GST-tagged NUAK1, NUAK1[A195T] or NUAK2. For peptide kinase assays, 96-well plates were used, and each reaction was performed in triplicate. Each reaction was set up in a total volume of 50 μl containing 100 ng of NUAK1 (wild-type or A195T mutant) or NUAK2 in 50 mM Tris/HCl (pH 7.5), 0.1 mM EGTA, 10 mM magnesium acetate, 200 μM Sakamototide, 0.1 mM [γ-^32P]ATP (450–500 c.p.m./pmol) and the indicated concentrations of inhibitors dissolved in DMSO. After incubation for 30 min at 30°C, reactions were terminated by adding 25 mM (final) EDTA to chelate the magnesium. Then, 40 μl of the reaction mix was spotted on to P81 paper and immersed in 50 mM orthophosphoric acid. Samples were washed three times in 50 mM orthophosphoric acid followed by a single acetone rinse and air drying. The incorporation of [γ-^32P]ATP into Sakamototide was quantified by Cerenkov counting. The values were expressed as a percentage of the DMSO control. IC50 curves were developed and IC50 values were calculated using GraphPad Prism software.

[3] = tested on: MYPT1 Ser445 phosphorylation; assay: MYPT1 Ser445 phosphorylation on EDTA-induced detachment, HEK-293; format: cell-based, human; details: HEK-293, 16 h; for Suppression of MYPT1 Ser445 phosphorylation (in words): HTH-01-015 at 10 μM
Method: HEK (human embryonic kidney)-293 and U2OS cells were cultured in DMEM (Dulbecco's modified Eagle's medium) supplemented with 10% FBS, 2 mM glutamine and 1×antibacterial/antimycotic solution. NUAK1^+/+ and NUAK1^−/− MEFs were cultured in DMEM supplemented with 10% (v/v) FBS and 2 mM glutamine, 1×antibacterial/antimycotic solution, 1% (v/v) non-essential amino acids and 1% (v/v) sodium pyruvate. HEK-293 Flp/In T-Rex cell lines were cultured in DMEM supplemented with 10% (v/v) FBS and 2 mM glutamine, 1×antibacterial/antimycotic solution, 100 μg/ml hygromycin and 15 μg/ml blasticidin. Supplementing the culture medium with 0.1 μg/ml doxycycline for 16–24 h induced protein expression in the HEK-293 Flp/In T-Rex cells. Cell counting was carried out using Invitrogen Countess following the manufacturer's protocol. A cell-detachment assay was carried out on HEK-293 cells using PBS-EDTA-based cell dissociation buffer as described previously. An inhibitor dose-dependence assay was carried out by treating the cells with various concentrations of the inhibitors as indicated in the Figure legends. The inhibitors were dissolved in DMSO and the total concentration of DMSO in the culture media never exceeded 1%. Transient transfections of HEK-293 cells were carried out using PEI [24]. Stable transfections were carried out in HEK-293 Flp/In T-Rex cells (Invitrogen) following the manufacturer's protocol. Lentivirus-mediated knock down of NUAK1 was carried out in U2OS cells using shRNA constructs as described previously. Post-treatment and/or transfection, cells were lysed in lysis buffer containing 50 mM Tris/HCl (pH 7.5), 1 mM EGTA, 1 mM EDTA, 1% Triton X-100, 50 mM NaF, 10 mM sodium 2-glycerophosphate, 5 mM sodium pyrophosphate, 1 mM sodium orthovanadate, 0.27 M sucrose, 1 mM benzamidine (added before lysis), 1 mM PMSF (added before lysis) and 0.1% 2-mercaptoethanol (added before lysis). Lysates were clarified by centrifugation at 16000 g for 15 min at 4°C and either used for further experiments or snap-frozen in liquid nitrogen and stored at −80°C. Protein estimation was carried out using the Bradford method with BSA as a standard.
Figure 5 HTH-01-015 and WZ4003 inhibit MYPT1 Ser^445 phosphorylation in vivo (A) HEK-293 cells were treated in the absence (DMSO) or presence of the indicated concentrations of WZ4003 over 16 h. Cell medium was then replaced with either normal DMEM containing no EDTA-PBS-based cell dissociation buffer (−) or EDTA-PBS-based cell dissociation buffer (+) containing the same concentration of WZ4003 that the cells were previously incubated in. Cell detachment was induced with gentle tapping of the plates followed by gentle centrifugation at 70 g for 3 min. Cells were lysed immediately after removal of the supernatant. Endogenous MYPT1 was immunoprecipitated from 0.5 mg of the cell lysates. The immunoprecipitates were immunoblotted for the detection of p-Ser^445 MYPT1 and total MYPT1. The cell lysates were subjected to immunoblotting for the detection of p-Ser^79 ACC and total ACC. Similar results were obtained in three separate experiments. (B) As in (A) except for the HTH-01-015 inhibitor was used. (C–F) As above except that HEK-293 Flp/In T-Rex cells stably expressing the indicated wild-type HA-tagged NUAK1 or drug-resistant HA-tagged NUAK1[A195T] were used. Similar results were obtained in three separate experiments for all data shown on this Figure.

## Cc1nc(Nc2cnn(C3CCNCC3)c2)nc2c1N(C)C(=O)c1cc3ccccc3cc1N2C [HTH-01-015]
[1]
  Selectivity over the other kinases of the panel (in words): did not markedly suppress
[2]
  IC50: 0.1 µM
[3]
  Inhibitor concentration for maximal suppression of MYPT1 Ser445 phosphorylation: 3 to 10 µM
  Suppression of MYPT1 Ser445 phosphorylation (in words): only led to a partial inhibition

## CCC(=O)Nc1cccc(Oc2nc(Nc3ccc(N4CCN(C)CC4)cc3OC)ncc2Cl)c1 [WZ4003]
[1]
  Selectivity over the other kinases of the panel (in words): did not significantly inhibit
[2]
  IC50: 0.02 µM
[3]
  Inhibitor concentration for maximal suppression of MYPT1 Ser445 phosphorylation: 3 to 10 µM
  Suppression of MYPT1 Ser445 phosphorylation (in words): suppressed MYPT1 phosphorylation in a dose-dependent manner

## CN1C(=O)c2ccccc2N(C)c2nc(Nc3cnn(C4CCNCC4)c3)ncc21 [XMD-17-51]
[1]
  Selectivity over the other kinases of the panel (in words): less selective
[2]
  IC50: 0.0015 µM
[3]
  Suppression of MYPT1 Ser445 phosphorylation (in words): only partially suppressed

## CN1C(=O)c2cc3ccccc3cc2N(C)c2nc(Nc3cnn(C4CCNCC4)c3)ncc21 [XMD-18-42]
[1]
  Selectivity over the other kinases of the panel (in words): less selective
[2]
  IC50: 0.03 µM
[3]
  Suppression of MYPT1 Ser445 phosphorylation (in words): only partially suppressed
